Test results taken from patent US7781423B2, “Compounds to promote regeneration of bone marrow” (priority 2007, dated 2010).

How the values were obtained:
[1] = tested on: transplanted bone marrow cells; test: Bone marrow regeneration from transplanted bone marrow cells after lethal irradiation (BM cells, CFU-GM); type: in vivo, C57B1 mice; conditions: for CFU-GM per femur / CFU-GM/10^5 nucleated BM cells: CCompound1 4.5 mg per kg i.p. daily, day -3 to day +3
Protocol: C57B1 female (10-14 weeks old) mice received sublethal (250 cGy) whole body irradiation from a ^137Cesium source (day 0). Starting three days before irradiation, animals received daily 4.5 mg per kg of CCompound1 via intraperitoneal injection; this treatment also was provided on day 0 and once daily for three days subsequent to irradiation. In another group, mice were injected only with physiological saline. The subsequent procedure has been reported in Vas, V., Fajka-Boja, R., Ion, G. A., Dudics, V., Monostori, E. and Uher, F., “Biphasic effect of recombinant Galectin-1 on the growth and death of early hematopoietic cells,” Stem Cells, 23, 279-287 (2005). Briefly, bone marrow was flushed from the femurs with Iscove's modified Dulbecco's medium (Gibco BRL, Gaithersburg, Md., USA), and after standard erythrocyte lysis, nucleated cells were counted using a hemocytometer. Samples were taken on days 0, 1, 3, and 10. To measure the formation of the granulocyte-macrophage colony-forming units (CFU-GM), a semisolid colony-forming cell assay was used. Nucleated bone marrow cells (isolated on the days as indicated above) were plated in 35-mm Petri dishes (Costar, Cambridge, Mass., USA) in Iscove's modified Dulbecco's medium supplemented with 1% methylcellulose, 30% horse serum (Gibco), 10% WEHI-3B conditioned medium as a source of growth factors, 4 mM L-glutamine, 0.25 mM a-thioglycerol (Gibco), 1% deionized bovine serum albumine (Sigma), and antibiotics (Gibco). Cells were cultured at 37° C. in 5% CO2/95% air atmosphere and colonies were counted on day 7 in the same dish. Colonies containing at least 50 cells were counted which is a generally accepted value in the literature. Each value represents the mean±st. dev. of 9 samples (3 parallel dishes from each animal).
In this experiment the goal was to determine if CCompound1 can enhance expansion of transplanted bone marrow cells infused after applying a lethal dose of whole body irradiation (which reduces the number of bone marrow cells by more than 90%). C57B1 female mice (10-14 weeks old) were subjected to 900 cGy whole body irradiation from a ^137Cesium source which was followed within 6 hours by infusion of one million donor nucleated bone marrow cells by tail vein injection. Starting 3 days before irradiation, animals received daily 4.5 mg per kg of CCompound1 via intraperitoneal injection; this treatment also was provided on day 0 and once daily for the subsequent 3 days after irradiation. In another group, mice were injected only with physiological saline.
Bone marrow cells were collected on day 0 from non-irradiated animals as well as on days 6, 14, 28 and 42 after irradiation and bone marrow transplantation. Nucleated bone marrow cells were quantified and CFU-GM assay was performed as described in Example 3 while blood profiling was performed as described in Example 1. For each group, on the indicated days bone marrow and blood samples were collected from 3 animals. Each value presented in Table 5 and Table 6 represents the mean±st. dev. of 3 samples (derived from 3 animals).

[2] = tested on: human bone marrow-derived mesenchymal stem cells; test: Proliferation of mesenchymal stem cells in the presence of 2% serum (viable cell number); type: cell-based; conditions: 10 μM or 50 μM
Protocol: Bone marrow aspirates were taken from normal adult donors after an informed consent was signed. Bone marrow mesenchymal stem cells were prepared by a widely used technique as described earlier by others. Pittenger, M. F., Mackay, A. M., Beck, S. C., Jaiswal, R. K., Douglas, R., Mosca, J. D., Moorman, M. A., Simonetti, D. W., Craig, S. and Marshak, D. R., “Multilineage potential of adult human mesenchymal stem cells,” Science, 284, 143-147 (1999). […] When cells grew to about 80% confluence, they were suspended and harvested by incubating with a ready-made solution containing 0.25% trypsin and 1 mM EDTA (Sigma-Aldrich, St. Louis, Mo.) for 5 minutes at 37° C.; this cell suspension is designated as passage 1. […]
The total numbers of nucleated and viable cells were determined with a hemocytometer, using Turck's solution and trypan blue stain, respectively. […]
In the experiments reported in Table 7 and Table 8, human bone marrow-derived mesenchymal stem cells were split at 1:3 and then incubated for 24 hours in 10% fetal calf serum-containing medium to about 30-35% confluence. […] The data are expressed as mean values±std. dev. of 3 determinations.

[3] = day 6 after 900 cGy irradiation and bone marrow transplantation
[4] = day 14 after 900 cGy irradiation and bone marrow transplantation
[5] = day 28 after 900 cGy irradiation and bone marrow transplantation
[6] = day 42 after 900 cGy irradiation and bone marrow transplantation

## Cc1c(OCC(O)C[N+](C)(C)C)cc2c(=O)c3ccccc3sc2c1C.[Cl-] (centres unmarked) [CCcompound1, [3-(3,4-Dimethyl-9-oxo-9H-thioxanthen-2-yloxy)-2-hydroxypropyl]trimethyl-ammonium chloride]
[1]; [3]
  CFU-GM per femur: 134.9
  CFU-GM/10^5 nucleated BM cells: 44.8 ± 5.1
[1]; day 6 following transplantation
  level of bone marrow re-population in the femur, treated versus untreated animals: about 5.3 fold
[1]; [4]
  CFU-GM per femur: 650.4
  CFU-GM/10^5 nucleated BM cells: 81.2 ± 5.3
[1]; day 14 following transplantation
  level of bone marrow re-population in the femur, treated versus untreated animals: ~2.9 fold
[1]; [5]
  CFU-GM per femur: 1,286.4
  CFU-GM/10^5 nucleated BM cells: 125.5 ± 9.1
[1]; [6]
  CFU-GM per femur: 992.4
  CFU-GM/10^5 nucleated BM cells: 71.5 ± 5.3
[2]
  effect on the proliferation of stem cells: no direct stimulatory effect
